Source: the NIST ThermoML archive (doi:10.1021/je7003929)
± gives the expanded uncertainty stated by the source.

Assay: xn = mol fraction of the nth substance listed
Details: Liquid, Vibrating tube method

c1ccc2sccc2c1 [benzo[b]thiophene] + CCCCCC
Details | mass density [kg/m3]
352.41 K, 1015 kPa, x2 = 0.0629 | 1076.7 ± 0.5
352.41 K, 2020 kPa, x2 = 0.0629 | 1077.4 ± 0.5
352.41 K, 3016 kPa, x2 = 0.0629 | 1078.1 ± 0.5
352.41 K, 4038 kPa, x2 = 0.0629 | 1078.8 ± 0.5
352.41 K, 5000 kPa, x2 = 0.0629 | 1079.5 ± 0.5
352.41 K, 6001 kPa, x2 = 0.0629 | 1080.4 ± 0.5
352.41 K, 7017 kPa, x2 = 0.0629 | 1081.1 ± 0.5
352.41 K, 8008 kPa, x2 = 0.0629 | 1082 ± 0.5
352.41 K, 9017 kPa, x2 = 0.0629 | 1082.6 ± 0.5
352.41 K, 10026 kPa, x2 = 0.0629 | 1083.4 ± 0.5
352.41 K, 11018 kPa, x2 = 0.0629 | 1084.1 ± 0.5
352.41 K, 12014 kPa, x2 = 0.0629 | 1084.7 ± 0.5
352.41 K, 13014 kPa, x2 = 0.0629 | 1085.4 ± 0.5
352.41 K, 14022 kPa, x2 = 0.0629 | 1086.2 ± 0.5
352.41 K, 15028 kPa, x2 = 0.0629 | 1086.8 ± 0.5
352.41 K, 16020 kPa, x2 = 0.0629 | 1087.6 ± 0.5
352.41 K, 17023 kPa, x2 = 0.0629 | 1088.2 ± 0.5
352.41 K, 18015 kPa, x2 = 0.0629 | 1088.8 ± 0.5
352.41 K, 19016 kPa, x2 = 0.0629 | 1089.5 ± 0.5
352.41 K, 20019 kPa, x2 = 0.0629 | 1090.2 ± 0.5
352.53 K, 1025 kPa, x2 = 0.9432 | 630.4 ± 0.5
352.53 K, 1026 kPa, x2 = 0.7491 | 725.1 ± 0.5
352.53 K, 2023 kPa, x2 = 0.9432 | 632.1 ± 0.5
352.53 K, 2026 kPa, x2 = 0.7491 | 726.5 ± 0.5
352.53 K, 3024 kPa, x2 = 0.7491 | 727.8 ± 0.5
352.53 K, 3030 kPa, x2 = 0.9432 | 633.8 ± 0.5
352.53 K, 4018 kPa, x2 = 0.9432 | 635.4 ± 0.5
352.53 K, 4034 kPa, x2 = 0.7491 | 729.2 ± 0.5
352.53 K, 5014 kPa, x2 = 0.7491 | 730.5 ± 0.5
352.53 K, 5021 kPa, x2 = 0.9432 | 637 ± 0.5
352.53 K, 6018 kPa, x2 = 0.9432 | 638.5 ± 0.5
352.53 K, 6040 kPa, x2 = 0.7491 | 731.8 ± 0.5
352.53 K, 7010 kPa, x2 = 0.9432 | 639.9 ± 0.5
352.53 K, 7028 kPa, x2 = 0.7491 | 733 ± 0.5
352.53 K, 8017 kPa, x2 = 0.7491 | 734.3 ± 0.5
352.53 K, 8018 kPa, x2 = 0.9432 | 641.4 ± 0.5
352.53 K, 9003 kPa, x2 = 0.7491 | 735.5 ± 0.5
352.53 K, 9044 kPa, x2 = 0.9432 | 642.8 ± 0.5
352.53 K, 10008 kPa, x2 = 0.7491 | 736.7 ± 0.5
352.53 K, 10011 kPa, x2 = 0.9432 | 644.2 ± 0.5
352.53 K, 11016 kPa, x2 = 0.7491 | 737.9 ± 0.5
352.53 K, 11022 kPa, x2 = 0.9432 | 645.5 ± 0.5
352.53 K, 12002 kPa, x2 = 0.7491 | 739 ± 0.5
352.53 K, 12013 kPa, x2 = 0.9432 | 646.9 ± 0.5
352.53 K, 13005 kPa, x2 = 0.9432 | 648.2 ± 0.5
352.53 K, 13020 kPa, x2 = 0.7491 | 740.2 ± 0.5
352.53 K, 14000 kPa, x2 = 0.9432 | 649.5 ± 0.5
352.53 K, 14016 kPa, x2 = 0.7491 | 741.3 ± 0.5
352.53 K, 15021 kPa, x2 = 0.9432 | 650.8 ± 0.6
352.53 K, 15037 kPa, x2 = 0.7491 | 742.5 ± 0.5
352.53 K, 16022 kPa, x2 = 0.9432 | 652 ± 0.6
352.53 K, 16035 kPa, x2 = 0.7491 | 743.6 ± 0.5
352.53 K, 17001 kPa, x2 = 0.9432 | 653.2 ± 0.6
352.53 K, 17020 kPa, x2 = 0.7491 | 744.6 ± 0.5
352.53 K, 18013 kPa, x2 = 0.9432 | 654.4 ± 0.6
352.53 K, 18020 kPa, x2 = 0.7491 | 745.7 ± 0.5
352.53 K, 19007 kPa, x2 = 0.9432 | 655.6 ± 0.6
352.53 K, 19008 kPa, x2 = 0.7491 | 746.7 ± 0.5
352.53 K, 20019 kPa, x2 = 0.7491 | 747.8 ± 0.5
352.53 K, 20039 kPa, x2 = 0.9432 | 656.7 ± 0.6
352.63 K, 1037 kPa, x2 = 0.4495 | 874.2 ± 0.4
352.63 K, 2029 kPa, x2 = 0.4495 | 875.3 ± 0.5
352.63 K, 3026 kPa, x2 = 0.4495 | 876.4 ± 0.5
352.63 K, 4032 kPa, x2 = 0.4495 | 877.5 ± 0.5
352.63 K, 5015 kPa, x2 = 0.4495 | 878.5 ± 0.5
352.63 K, 6024 kPa, x2 = 0.4495 | 879.5 ± 0.5
352.63 K, 7028 kPa, x2 = 0.4495 | 880.5 ± 0.5
352.63 K, 8017 kPa, x2 = 0.4495 | 881.5 ± 0.5
352.63 K, 9003 kPa, x2 = 0.4495 | 882.5 ± 0.5
352.63 K, 10022 kPa, x2 = 0.4495 | 883.5 ± 0.5
352.63 K, 11024 kPa, x2 = 0.4495 | 884.5 ± 0.5
352.63 K, 12013 kPa, x2 = 0.4495 | 885.4 ± 0.5
352.63 K, 13038 kPa, x2 = 0.4495 | 886.4 ± 0.5
352.63 K, 14000 kPa, x2 = 0.4495 | 887.3 ± 0.5
352.63 K, 15021 kPa, x2 = 0.4495 | 888.2 ± 0.5
352.63 K, 16012 kPa, x2 = 0.4495 | 889.1 ± 0.5
352.63 K, 17010 kPa, x2 = 0.4495 | 890 ± 0.5
352.63 K, 18015 kPa, x2 = 0.4495 | 890.9 ± 0.5
352.63 K, 19022 kPa, x2 = 0.4495 | 891.8 ± 0.5
352.63 K, 20005 kPa, x2 = 0.4495 | 892.7 ± 0.5
362.31 K, 1028 kPa, x2 = 0.9432 | 620.3 ± 0.5
362.31 K, 2031 kPa, x2 = 0.9432 | 622.2 ± 0.5
362.31 K, 3031 kPa, x2 = 0.9432 | 624 ± 0.5
362.31 K, 4012 kPa, x2 = 0.9432 | 625.7 ± 0.5
362.31 K, 5026 kPa, x2 = 0.9432 | 627.4 ± 0.5
362.31 K, 6013 kPa, x2 = 0.9432 | 629.1 ± 0.5
362.31 K, 7022 kPa, x2 = 0.9432 | 630.7 ± 0.5
362.31 K, 8014 kPa, x2 = 0.9432 | 632.3 ± 0.5
362.31 K, 9000 kPa, x2 = 0.9432 | 633.7 ± 0.5
362.31 K, 10011 kPa, x2 = 0.9432 | 635.3 ± 0.5
362.31 K, 11007 kPa, x2 = 0.9432 | 636.7 ± 0.5
362.31 K, 12007 kPa, x2 = 0.9432 | 638.2 ± 0.5
362.31 K, 13008 kPa, x2 = 0.9432 | 639.6 ± 0.5
362.31 K, 14024 kPa, x2 = 0.9432 | 640.9 ± 0.5
362.31 K, 15002 kPa, x2 = 0.9432 | 642.3 ± 0.6
362.31 K, 16016 kPa, x2 = 0.9432 | 643.6 ± 0.6
362.31 K, 17000 kPa, x2 = 0.9432 | 644.9 ± 0.6
362.31 K, 18008 kPa, x2 = 0.9432 | 646.3 ± 0.6
362.31 K, 19018 kPa, x2 = 0.9432 | 647.5 ± 0.6
362.31 K, 20028 kPa, x2 = 0.9432 | 648.8 ± 0.6
362.33 K, 1020 kPa, x2 = 0.7491 | 715.3 ± 0.5
362.33 K, 2034 kPa, x2 = 0.7491 | 716.8 ± 0.5
362.33 K, 3013 kPa, x2 = 0.7491 | 718.3 ± 0.5
362.33 K, 4007 kPa, x2 = 0.7491 | 719.7 ± 0.5
362.33 K, 5015 kPa, x2 = 0.7491 | 721.2 ± 0.5
362.33 K, 6018 kPa, x2 = 0.7491 | 722.5 ± 0.5
362.33 K, 7015 kPa, x2 = 0.7491 | 723.9 ± 0.5
362.33 K, 8017 kPa, x2 = 0.7491 | 725.2 ± 0.5
362.33 K, 9024 kPa, x2 = 0.7491 | 726.5 ± 0.5
362.33 K, 10010 kPa, x2 = 0.7491 | 727.8 ± 0.5
362.33 K, 10996 kPa, x2 = 0.7491 | 729.1 ± 0.5
362.33 K, 12027 kPa, x2 = 0.7491 | 730.4 ± 0.5
362.33 K, 13022 kPa, x2 = 0.7491 | 731.6 ± 0.5
362.33 K, 14016 kPa, x2 = 0.7491 | 732.8 ± 0.5
362.33 K, 15023 kPa, x2 = 0.7491 | 734 ± 0.5
362.33 K, 16012 kPa, x2 = 0.7491 | 735.1 ± 0.5
362.33 K, 17011 kPa, x2 = 0.7491 | 736.3 ± 0.5
362.33 K, 18012 kPa, x2 = 0.7491 | 737.4 ± 0.5
362.33 K, 19030 kPa, x2 = 0.7491 | 738.6 ± 0.5
362.33 K, 20017 kPa, x2 = 0.7491 | 739.7 ± 0.5
362.5 K, 1028 kPa, x2 = 0.4495 | 864.8 ± 0.5
362.5 K, 2025 kPa, x2 = 0.4495 | 866 ± 0.5
362.5 K, 3020 kPa, x2 = 0.4495 | 867.1 ± 0.5
362.5 K, 4000 kPa, x2 = 0.4495 | 868.2 ± 0.5
362.5 K, 5045 kPa, x2 = 0.4495 | 869.3 ± 0.5
362.5 K, 6017 kPa, x2 = 0.4495 | 870.4 ± 0.5
362.5 K, 7018 kPa, x2 = 0.4495 | 871.5 ± 0.5
362.5 K, 8013 kPa, x2 = 0.4495 | 872.5 ± 0.5
362.5 K, 9024 kPa, x2 = 0.4495 | 873.6 ± 0.5
362.5 K, 10011 kPa, x2 = 0.4495 | 874.6 ± 0.5
362.5 K, 11008 kPa, x2 = 0.4495 | 875.6 ± 0.5
362.5 K, 12025 kPa, x2 = 0.4495 | 876.6 ± 0.5
362.5 K, 13004 kPa, x2 = 0.4495 | 877.6 ± 0.5
362.5 K, 14014 kPa, x2 = 0.4495 | 878.6 ± 0.5
362.5 K, 15011 kPa, x2 = 0.4495 | 879.6 ± 0.5
362.5 K, 16027 kPa, x2 = 0.4495 | 880.6 ± 0.5
362.5 K, 17017 kPa, x2 = 0.4495 | 881.5 ± 0.5
362.5 K, 18030 kPa, x2 = 0.4495 | 882.5 ± 0.5
362.5 K, 19022 kPa, x2 = 0.4495 | 883.4 ± 0.5
362.5 K, 20002 kPa, x2 = 0.4495 | 884.3 ± 0.5
